Values quoted from earlier work in patent US20210393628A1, “COMPOSITIONS AND METHODS FOR MODULATING T CELL EXHAUSTION” (The Board of Trustees of the Leland Stanford Junior …, priority 2018, published 2021).

System: tonically signaling CAR T cells
Conditions: expanded in the presence of dasatinib

**Q.** With `Cc1nc(Nc2ncc(C(=O)Nc3c(C)cccc3Cl)s2)cc(N2CCN(CCO)CC2)n1` [dasatinib] as the molecule, how does the cytotoxicity read?
**A.** Its cytotoxicity is “augmented”.
